Data reported in the kinase profiling compilation of Christmann-Franck et al. (2016).

What was measured:
Assay in all cases: KINOMEscan competition binding
Settings in all cases: compound 10.0 µM
PLK1 (human) = PLK1 (human) (UniProt P53350)
PTK2B (human) = PTK2B (human) (UniProt Q14289)
AURKA (human) = AURKA (human) (UniProt O14965)
CAMK2D (human) = CAMK2D (human) (UniProt Q13557)
TAOK3 (human) = TAOK3 (human) (UniProt Q9H2K8)
STK33 (human) = STK33 (human) (UniProt Q9BYT3)
NUAK1 (human) = NUAK1 (human) (UniProt O60285)
GAK (human) = GAK (human) (UniProt O14976)
PRKD1 (human) = PRKD1 (human) (UniProt Q15139)
PIK3CG (human) = PIK3CG (human) (UniProt P48736)
PTK2 (human) = PTK2 (human) (UniProt Q05397)
RPS6KA6 KD2 (human) = RPS6KA6 KD2 (human) (UniProt Q9UK32)
FGFR4 (human) = FGFR4 (human) (UniProt P22455)
FRK (human) = FRK (human) (UniProt P42685)
MYLK (human) = MYLK (human) (UniProt Q15746)
AURKC (human) = AURKC (human) (UniProt Q9UQB9)
ULK2 (human) = ULK2 (human) (UniProt Q8IYT8)
DCLK1 (human) = DCLK1 (human) (UniProt O15075)
TTK (human) = TTK (human) (UniProt P33981)
DCLK2 (human) = DCLK2 (human) (UniProt Q8N568)
MAPK7 (human) = MAPK7 (human) (UniProt Q13164)
FER (human) = FER (human) (UniProt P16591)
TNK2 (human) = TNK2 (human) (UniProt Q07912)
[1] = system: ABL1 (human), P00519 [F317L]
TNK1 (human) = TNK1 (human) (UniProt Q13470)
ULK1 (human) = ULK1 (human) (UniProt O75385)
ALK (human) = ALK (human) (UniProt Q9UM73)
ROS1 (human) = ROS1 (human) (UniProt P08922)
PLK4 (human) = PLK4 (human) (UniProt O00444)
PTK6 (human) = PTK6 (human) (UniProt Q13882)
[2] = system: ABL1 (human), P00519 [F317I]
CAMKK2 (human) = CAMKK2 (human) (UniProt Q96RR4)
RPS6KA2 KD2 (human) = RPS6KA2 KD2 (human) (UniProt Q15349)
CSF1R (human) = CSF1R (human) (UniProt P07333)
MKNK2 (human) = MKNK2 (human) (UniProt Q9HBH9)
RPS6KA1 KD2 (human) = RPS6KA1 KD2 (human) (UniProt Q15418)
TAOK1 (human) = TAOK1 (human) (UniProt Q7L7X3)

Sequence of TNK2 (human) (Q07912 whole entry, looked up): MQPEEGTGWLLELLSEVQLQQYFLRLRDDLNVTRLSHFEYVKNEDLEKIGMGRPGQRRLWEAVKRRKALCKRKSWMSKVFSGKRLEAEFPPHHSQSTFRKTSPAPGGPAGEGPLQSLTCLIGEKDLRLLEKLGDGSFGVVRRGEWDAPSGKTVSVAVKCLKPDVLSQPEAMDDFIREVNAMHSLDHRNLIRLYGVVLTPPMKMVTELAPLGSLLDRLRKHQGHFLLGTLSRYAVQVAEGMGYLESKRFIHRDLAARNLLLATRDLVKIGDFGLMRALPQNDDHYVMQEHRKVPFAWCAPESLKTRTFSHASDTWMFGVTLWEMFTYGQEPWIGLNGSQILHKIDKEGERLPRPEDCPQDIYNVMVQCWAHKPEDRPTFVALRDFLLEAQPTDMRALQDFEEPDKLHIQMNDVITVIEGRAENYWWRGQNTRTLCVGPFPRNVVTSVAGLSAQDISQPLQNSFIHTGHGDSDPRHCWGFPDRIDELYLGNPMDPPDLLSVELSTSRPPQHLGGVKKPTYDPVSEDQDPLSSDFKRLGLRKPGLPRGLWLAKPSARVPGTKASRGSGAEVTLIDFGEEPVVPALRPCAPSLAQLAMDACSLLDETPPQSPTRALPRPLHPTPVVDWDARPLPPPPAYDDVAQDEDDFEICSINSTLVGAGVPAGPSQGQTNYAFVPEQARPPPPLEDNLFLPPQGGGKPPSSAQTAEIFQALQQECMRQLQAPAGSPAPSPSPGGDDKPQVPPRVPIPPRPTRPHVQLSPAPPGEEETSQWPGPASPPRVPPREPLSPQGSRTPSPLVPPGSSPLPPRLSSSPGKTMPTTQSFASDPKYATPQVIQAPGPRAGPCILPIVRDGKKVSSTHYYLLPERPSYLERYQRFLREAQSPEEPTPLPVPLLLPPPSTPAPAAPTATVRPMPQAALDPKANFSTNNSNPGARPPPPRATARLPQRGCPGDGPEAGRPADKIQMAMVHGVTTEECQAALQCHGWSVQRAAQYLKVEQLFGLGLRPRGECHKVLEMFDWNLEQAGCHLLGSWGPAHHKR
Sequence of NUAK1 (human) (O60285 whole entry, looked up): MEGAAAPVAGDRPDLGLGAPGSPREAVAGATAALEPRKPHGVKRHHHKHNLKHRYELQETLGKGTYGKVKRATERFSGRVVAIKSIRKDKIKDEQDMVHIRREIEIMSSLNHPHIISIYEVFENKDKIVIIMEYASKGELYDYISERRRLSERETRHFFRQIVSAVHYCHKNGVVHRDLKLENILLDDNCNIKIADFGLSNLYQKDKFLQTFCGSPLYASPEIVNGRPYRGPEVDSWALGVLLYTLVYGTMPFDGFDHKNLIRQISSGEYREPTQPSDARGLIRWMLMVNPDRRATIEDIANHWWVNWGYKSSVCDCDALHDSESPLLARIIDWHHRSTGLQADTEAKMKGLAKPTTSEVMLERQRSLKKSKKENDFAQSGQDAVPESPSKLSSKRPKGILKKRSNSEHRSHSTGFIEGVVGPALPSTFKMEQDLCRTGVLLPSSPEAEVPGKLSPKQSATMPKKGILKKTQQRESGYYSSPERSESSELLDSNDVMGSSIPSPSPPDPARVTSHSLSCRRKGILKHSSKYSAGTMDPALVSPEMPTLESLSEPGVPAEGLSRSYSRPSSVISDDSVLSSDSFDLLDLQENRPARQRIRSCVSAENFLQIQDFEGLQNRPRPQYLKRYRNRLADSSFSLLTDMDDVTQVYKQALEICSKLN
Sequence of GAK (human) (O14976 whole entry, looked up): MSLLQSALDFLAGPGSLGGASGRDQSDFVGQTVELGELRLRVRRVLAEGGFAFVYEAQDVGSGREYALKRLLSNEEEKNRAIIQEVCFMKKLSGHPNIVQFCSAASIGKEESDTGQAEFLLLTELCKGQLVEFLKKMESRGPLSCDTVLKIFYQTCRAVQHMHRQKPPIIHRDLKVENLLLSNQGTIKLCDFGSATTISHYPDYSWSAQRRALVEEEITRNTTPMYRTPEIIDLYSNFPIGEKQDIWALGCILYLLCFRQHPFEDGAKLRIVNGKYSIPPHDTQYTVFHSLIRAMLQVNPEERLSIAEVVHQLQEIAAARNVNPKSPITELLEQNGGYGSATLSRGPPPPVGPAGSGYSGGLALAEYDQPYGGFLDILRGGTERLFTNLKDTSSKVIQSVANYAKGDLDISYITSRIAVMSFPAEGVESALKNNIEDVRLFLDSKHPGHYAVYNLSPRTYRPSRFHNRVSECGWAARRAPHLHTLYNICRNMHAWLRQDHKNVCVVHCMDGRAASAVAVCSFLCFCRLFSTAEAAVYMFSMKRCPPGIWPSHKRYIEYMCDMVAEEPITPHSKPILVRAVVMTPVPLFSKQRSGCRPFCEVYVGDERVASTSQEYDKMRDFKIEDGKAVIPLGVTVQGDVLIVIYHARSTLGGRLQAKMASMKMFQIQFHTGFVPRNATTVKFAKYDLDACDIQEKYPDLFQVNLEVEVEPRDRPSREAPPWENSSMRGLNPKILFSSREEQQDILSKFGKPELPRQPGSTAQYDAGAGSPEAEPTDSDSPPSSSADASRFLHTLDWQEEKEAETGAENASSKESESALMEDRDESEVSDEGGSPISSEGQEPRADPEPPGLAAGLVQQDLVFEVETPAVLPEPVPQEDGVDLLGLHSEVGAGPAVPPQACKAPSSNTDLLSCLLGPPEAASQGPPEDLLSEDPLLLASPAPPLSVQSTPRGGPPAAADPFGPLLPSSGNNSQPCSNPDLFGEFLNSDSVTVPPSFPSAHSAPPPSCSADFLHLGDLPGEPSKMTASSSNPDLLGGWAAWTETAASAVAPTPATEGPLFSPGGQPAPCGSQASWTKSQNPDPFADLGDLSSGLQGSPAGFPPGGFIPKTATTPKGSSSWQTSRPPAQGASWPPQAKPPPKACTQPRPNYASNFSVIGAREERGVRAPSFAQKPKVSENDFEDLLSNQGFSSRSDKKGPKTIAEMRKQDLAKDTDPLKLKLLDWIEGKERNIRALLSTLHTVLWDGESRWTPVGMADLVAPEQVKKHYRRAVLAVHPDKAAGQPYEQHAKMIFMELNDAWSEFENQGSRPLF
Sequence of TAOK3 (human) (Q9H2K8 whole entry, looked up): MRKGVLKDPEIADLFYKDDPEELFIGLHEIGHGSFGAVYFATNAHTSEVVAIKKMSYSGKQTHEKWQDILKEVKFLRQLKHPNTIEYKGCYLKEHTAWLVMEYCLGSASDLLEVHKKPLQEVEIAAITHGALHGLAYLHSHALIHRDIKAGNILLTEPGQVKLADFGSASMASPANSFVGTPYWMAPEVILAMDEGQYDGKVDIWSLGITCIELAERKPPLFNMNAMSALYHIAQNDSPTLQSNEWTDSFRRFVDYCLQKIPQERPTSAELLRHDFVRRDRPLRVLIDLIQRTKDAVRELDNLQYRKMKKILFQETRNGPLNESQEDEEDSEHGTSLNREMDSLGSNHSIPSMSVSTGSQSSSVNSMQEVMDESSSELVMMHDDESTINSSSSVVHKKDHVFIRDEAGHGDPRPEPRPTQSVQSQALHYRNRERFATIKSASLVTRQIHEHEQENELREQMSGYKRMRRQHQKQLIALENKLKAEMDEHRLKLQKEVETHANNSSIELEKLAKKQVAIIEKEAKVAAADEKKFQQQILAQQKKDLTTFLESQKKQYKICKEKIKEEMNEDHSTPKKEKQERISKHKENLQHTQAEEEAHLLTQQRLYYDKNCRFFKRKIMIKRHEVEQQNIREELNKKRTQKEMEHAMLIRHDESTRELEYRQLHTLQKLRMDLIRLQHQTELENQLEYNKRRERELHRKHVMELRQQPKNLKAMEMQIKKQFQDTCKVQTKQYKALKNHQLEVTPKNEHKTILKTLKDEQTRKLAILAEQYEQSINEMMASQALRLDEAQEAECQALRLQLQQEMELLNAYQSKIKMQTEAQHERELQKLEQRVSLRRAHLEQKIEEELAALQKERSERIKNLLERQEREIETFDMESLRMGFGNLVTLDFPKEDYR
Sequence of FRK (human) (P42685 whole entry, looked up): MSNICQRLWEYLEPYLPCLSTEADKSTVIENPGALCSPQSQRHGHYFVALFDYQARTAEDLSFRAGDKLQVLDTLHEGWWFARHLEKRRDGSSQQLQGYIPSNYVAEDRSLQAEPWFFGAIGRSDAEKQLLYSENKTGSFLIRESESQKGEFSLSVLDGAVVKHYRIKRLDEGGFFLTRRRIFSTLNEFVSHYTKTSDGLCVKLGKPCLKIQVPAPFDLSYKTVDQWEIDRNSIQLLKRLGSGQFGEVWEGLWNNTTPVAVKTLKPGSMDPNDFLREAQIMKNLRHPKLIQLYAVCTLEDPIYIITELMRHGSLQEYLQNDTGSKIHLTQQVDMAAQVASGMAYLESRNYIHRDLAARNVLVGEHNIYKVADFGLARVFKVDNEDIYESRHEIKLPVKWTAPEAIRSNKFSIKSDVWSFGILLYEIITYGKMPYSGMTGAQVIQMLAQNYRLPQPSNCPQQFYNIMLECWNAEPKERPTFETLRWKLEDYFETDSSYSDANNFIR
Sequence of PLK1 (human) (P53350 whole entry, looked up): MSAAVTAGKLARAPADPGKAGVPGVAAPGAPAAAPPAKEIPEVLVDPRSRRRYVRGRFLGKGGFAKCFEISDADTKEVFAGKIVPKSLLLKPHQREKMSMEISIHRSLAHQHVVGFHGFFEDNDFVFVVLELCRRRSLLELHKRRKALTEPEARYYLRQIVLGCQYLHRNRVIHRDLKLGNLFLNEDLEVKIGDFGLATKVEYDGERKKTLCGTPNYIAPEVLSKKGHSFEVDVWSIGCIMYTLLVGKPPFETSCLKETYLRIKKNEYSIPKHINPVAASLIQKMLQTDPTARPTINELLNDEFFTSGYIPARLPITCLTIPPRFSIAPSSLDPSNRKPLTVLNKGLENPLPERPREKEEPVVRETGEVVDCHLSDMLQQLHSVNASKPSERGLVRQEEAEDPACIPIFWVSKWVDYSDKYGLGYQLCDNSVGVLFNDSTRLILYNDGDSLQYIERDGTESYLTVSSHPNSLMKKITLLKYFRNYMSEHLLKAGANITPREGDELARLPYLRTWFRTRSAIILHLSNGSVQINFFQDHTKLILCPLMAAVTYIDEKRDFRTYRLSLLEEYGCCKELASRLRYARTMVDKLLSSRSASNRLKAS

COc1cc(N2CCC(O)CC2)ccc1Nc1ncc2c(n1)N(C)c1ccccc1C(=O)N2C
kinase still bound, per cent of control (PLK1 (human)): 5.5% | kinase still bound, per cent of control (PTK2B (human)): 29% | kinase still bound, per cent of control (AURKA (human)): 26% | kinase still bound, per cent of control (CAMK2D (human)): 27% | kinase still bound, per cent of control (TAOK3 (human)): 5.4% | kinase still bound, per cent of control (STK33 (human)): 19% | kinase still bound, per cent of control (NUAK1 (human)): 24% | kinase still bound, per cent of control (GAK (human)): 8.5% | kinase still bound, per cent of control (PRKD1 (human)): 26% | kinase still bound, per cent of control (PIK3CG (human)): 9.3% | kinase still bound, per cent of control (PTK2 (human)): 7.9% | kinase still bound, per cent of control (RPS6KA6 KD2 (human)): 14% | kinase still bound, per cent of control (FGFR4 (human)): 6% | kinase still bound, per cent of control (FRK (human)): 11% | kinase still bound, per cent of control (MYLK (human)): 22% | kinase still bound, per cent of control (AURKC (human)): 15% | kinase still bound, per cent of control (ULK2 (human)): 8.4% | kinase still bound, per cent of control (DCLK1 (human)): 0.55% | kinase still bound, per cent of control (TTK (human)): 13% | kinase still bound, per cent of control (DCLK2 (human)): 0.4% | kinase still bound, per cent of control (MAPK7 (human)): 0% | kinase still bound, per cent of control (FER (human)): 32% | kinase still bound, per cent of control (TNK2 (human)): 1.6% | kinase still bound, per cent of control [1]: 23% | kinase still bound, per cent of control (TNK1 (human)): 0.45% | kinase still bound, per cent of control (ULK1 (human)): 22% | kinase still bound, per cent of control (ALK (human)): 24% | kinase still bound, per cent of control (ROS1 (human)): 5.8% | kinase still bound, per cent of control (PLK4 (human)): 5.9% | kinase still bound, per cent of control (PTK6 (human)): 21% | kinase still bound, per cent of control [2]: 7.4% | kinase still bound, per cent of control (CAMKK2 (human)): 15% | kinase still bound, per cent of control (RPS6KA2 KD2 (human)): 27% | kinase still bound, per cent of control (CSF1R (human)): 3.2% | kinase still bound, per cent of control (MKNK2 (human)): 0% | kinase still bound, per cent of control (RPS6KA1 KD2 (human)): 22% | kinase still bound, per cent of control (TAOK1 (human)): 6.8%
